The supplement of paper PMC11208160

Assay: recombinant barcode read abundance after kanamycin selection (control-corrected) (log10(CPM+1)); higher = more efficient recombination; sequences stand for … in AGTGCAGAGAAAATCGGCCAGTTTTCTCTGCCTGCAGTCCGCATGCCGT…AGATTTATGCAGCGGACTGCCTTTCTCCCAAAGTGATAAACCGGACAGTATCATGGACCGGTTTTCCCGGTAATCCGTATTTGCAAGGTTGGTTTCACT; site = the 11-nt target
Method in brief: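 For this pooled screen, each oligo contained a promoter, a target, a barcode and the J23119-driven first 104 bases of the bridge RNA. Gibson cloning placed it into a vector supplying the remaining 73 bp and a T7-inducible recombinase, and the pool was co-electroporated into E. coli with a donor plasmid. Recombination efficiency is derived from barcode counts per million at recombinant junctions after averaging and control correction, and is expressed on a log scale as log10(CPM+1), with selection on chloramphenicol/ampicillin/kanamycin plus 0.1 mM IPTG against a chloramphenicol/ampicillin LB agar control.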
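Further: IS621 recombinase and bridge RNA in Escherichia coli cells.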

Sequence	recombinant barcode read abundance (log10)
GTGTGTACTTGGGTTCTAACCTGTTGCCA (site GAGTGAACTTG)	0.0252
GTGTGTACTTGGGTTCTAACCTGTTGCCA (site GTGTGTACTTG)	0.488
GTGTGTCCTTGGGTTCTAACCTGTTGCAT (site GTGTATCCTAT)	0.381
GTGTGTCCTTGGGTTCTAACCTGTTGCAT (site GTGTCTCCTAT)	0.122
GTGTGTCCTTGGGTTCTAACCTGTTGCAT (site GTGTGTCCTAT)	1.7
GTGTGTCCTTGGGTTCTAACCTGTTGCAT (site GTGTTTCCTAT)	0.052
GTGTTTCCTTGGGTTCTAACCTGTTGCAT (site GTGTATCCTAT)	0.654
GTGTTTCCTTGGGTTCTAACCTGTTGCAT (site GTGTCTCCTAT)	0.081
GTGTTTCCTTGGGTTCTAACCTGTTGCAT (site GTGTGTCCTAT)	0.0468
GTGTTTCCTTGGGTTCTAACCTGTTGCAT (site GTGTTTCCTAT)	0.832
GTTAACTCTTGGGTTCTAACCTGTTGCCT (site GTAAACTCTAG)	0.2
GTTAACTCTTGGGTTCTAACCTGTTGCCT (site GTCAACTCTAG)	0.51
GTTAACTCTTGGGTTCTAACCTGTTGCCT (site GTGAACTCTAG)	0.34
GTTAACTCTTGGGTTCTAACCTGTTGCCT (site GTTAACTCTAG)	0.877
GTTACACCTTGGGTTCTAACCTGTTGCCT (site GTTACACCTAG)	0.848
GTTACACCTTGGGTTCTAACCTGTTGCCT (site GTTTCACCTAG)	0.187
GTTACTACTTGGGTTCTAACCTGTTGCCG (site GTTACTACTCG)	0.13
GTTACTACTTGGGTTCTAACCTGTTGCCG (site TGGTACCCTTA)	0.0233
GTTCAGACTTGGGTTCTAACCTGTTGCTT (site CCAAGTCCTTG)	0.284
GTTCAGACTTGGGTTCTAACCTGTTGCTT (site GTTCAGACTAA)	1.06
GTTCATCCTTGGGTTCTAACCTGTTGCCT (site GATCATCCTAG)	0.48
GTTCATCCTTGGGTTCTAACCTGTTGCCT (site GTTCATCCTAG)	1.02

Sequence	recombinant barcode read abundance (log10)
GTTCGTCCTTGGGTTCTAACCTGTTGCCA (site CCAATGTCTAC)	0.104
GTTCGTCCTTGGGTTCTAACCTGTTGCCA (site GTTCGTCCTTG)	0.0879
GTTGGGACTTGGGTTCTAACCTGTTGCCT (site GTTGGAACTAC)	0.109
GTTGGGACTTGGGTTCTAACCTGTTGCCT (site GTTGGGACTAG)	2
GTTGGGGCTTGGGTTCTAACCTGTTGCGG (site CTTGGGCCTCC)	0.019
GTTGGGGCTTGGGTTCTAACCTGTTGCGG (site GTTGGGGCTCC)	2
GTTGGTCCTTGGGTTCTAACCTGTTGCCT (site GTGGTTCCTAG)	0.114
GTTGGTCCTTGGGTTCTAACCTGTTGCCT (site GTTGGTCCTAG)	1.75
GTTTAATCTTGGGTTCTAACCTGTTGCCT (site GTTTAATCTAG)	0.216
GTTTAATCTTGGGTTCTAACCTGTTGCCT (site GTTTAGTCTAG)	0.233
GTTTATACTTGGGTTCTAACCTGTTGCCA (site AGAGTAGCTGT)	0.0898
GTTTATACTTGGGTTCTAACCTGTTGCCA (site GTTTATACTTG)	0.41
GTTTCACCTTGGGTTCTAACCTGTTGCCT (site GTTACACCTAG)	0.128
GTTTCACCTTGGGTTCTAACCTGTTGCCT (site GTTTCACCTAG)	0.491
GTTTCGACTTGGGTTCTAACCTGTTGCCT (site GTTTCGACTAG)	0.128
GTTTCGACTTGGGTTCTAACCTGTTGCCT (site GTTTCGTCTAG)	0.173
GTTTCGACTTGGGTTCTAACCTGTTGCTA (site GTTTCGACTTA)	0.238
GTTTCGACTTGGGTTCTAACCTGTTGCTA (site TCGGATGCTAT)	0.188
GTTTCGGCTTGGGTTCTAACCTGTTGCCT (site GTTACGGCTAG)	0.041
GTTTCGGCTTGGGTTCTAACCTGTTGCCT (site GTTCCGGCTAG)	0.357
GTTTCGGCTTGGGTTCTAACCTGTTGCCT (site GTTGCGGCTAG)	0.101
GTTTCGGCTTGGGTTCTAACCTGTTGCCT (site GTTTCGGCTAG)	0.342

Sequence	recombinant barcode read abundance (log10)
GTTTGGCCTTGGGTTCTAACCTGTTGCTT (site GTTTGACCTAA)	0
GTTTGGCCTTGGGTTCTAACCTGTTGCTT (site GTTTGCCCTAA)	0.154
GTTTGGCCTTGGGTTCTAACCTGTTGCTT (site GTTTGGCCTAA)	0.541
GTTTGGCCTTGGGTTCTAACCTGTTGCTT (site GTTTGTCCTAA)	0.167
TAAAACCCTTGGGTTCTAACCTGTTGCAT (site CCGCGGACTTA)	0.15
TAAAACCCTTGGGTTCTAACCTGTTGCAT (site TAAAACCCTAT)	0.713
TAAAAGGCTTGGGTTCTAACCTGTTGCCT (site TAAAAGACTAG)	0.102
TAAAAGGCTTGGGTTCTAACCTGTTGCCT (site TAAAAGCCTAG)	0.0288
TAAAAGGCTTGGGTTCTAACCTGTTGCCT (site TAAAAGGCTAG)	0.0132
TAAAAGGCTTGGGTTCTAACCTGTTGCCT (site TAAAAGTCTAG)	0.142
TAAAATACTTGGGTTCTAACCTGTTGCCT (site TAAAATACTAG)	0.1
TAAAATACTTGGGTTCTAACCTGTTGCCT (site TAGATTACTAG)	0.272
TAACACTCTTGGGTTCTAACCTGTTGCTT (site GAACACTCTCA)	0.105
TAACACTCTTGGGTTCTAACCTGTTGCTT (site TAACACTCTAA)	1.51
TAACGTACTTGGGTTCTAACCTGTTGCAT (site TAACATACTAT)	0.0677
TAACGTACTTGGGTTCTAACCTGTTGCAT (site TAACCTACTAT)	0.135
TAACGTACTTGGGTTCTAACCTGTTGCAT (site TAACGTACTAT)	0.696
TAACGTACTTGGGTTCTAACCTGTTGCAT (site TAACTTACTAT)	0.103
TAACTAGCTTGGGTTCTAACCTGTTGCTA (site GTGTATACTAT)	0.212
TAACTAGCTTGGGTTCTAACCTGTTGCTA (site TAACTAGCTTA)	0.141
TAAGGAGCTTGGGTTCTAACCTGTTGCCT (site TAAGGAGCTAG)	1.39
TAAGGAGCTTGGGTTCTAACCTGTTGCCT (site TAGGGCGCTAG)	0.0289

Sequence	recombinant barcode read abundance (log10)
TAAGGGACTTGGGTTCTAACCTGTTGCTA (site CGCCCTTCTAG)	0.239
TAAGGGACTTGGGTTCTAACCTGTTGCTA (site TAAGGGACTTA)	2.26
TAAGGTACTTGGGTTCTAACCTGTTGCTT (site TAAAGTACTAA)	0.0963
TAAGGTACTTGGGTTCTAACCTGTTGCTT (site TAACGTACTAA)	0.151
TAAGGTACTTGGGTTCTAACCTGTTGCTT (site TAAGGTACTAA)	1.26
TAAGGTACTTGGGTTCTAACCTGTTGCTT (site TAATGTACTAA)	0.0967
TAAGGTCCTTGGGTTCTAACCTGTTGCAG (site TAAGGTCCTCT)	2.47
TAAGGTCCTTGGGTTCTAACCTGTTGCAG (site TAGGGTCCTCC)	0.158
TAAGTCACTTGGGTTCTAACCTGTTGCCT (site GAAGTCACTAG)	0.0452
TAAGTCACTTGGGTTCTAACCTGTTGCCT (site TAAGTCACTAG)	1.9
TAAGTGTCTTGGGTTCTAACCTGTTGCCT (site TAAGTGTCTAG)	2.56
TAAGTGTCTTGGGTTCTAACCTGTTGCCT (site TACGTGTCTAG)	0.171
TAAGTGTCTTGGGTTCTAACCTGTTGCCT (site TAGGTGTCTAG)	0.314
TAAGTGTCTTGGGTTCTAACCTGTTGCCT (site TATGTGTCTAG)	1.03
TAATGAACTTGGGTTCTAACCTGTTGCCT (site TAATGAACTAG)	0.32
TAATGAACTTGGGTTCTAACCTGTTGCCT (site TAATGTACTAG)	0.216
TAATGACCTTGGGTTCTAACCTGTTGCAT (site TAATGACCTAA)	0.0652
TAATGACCTTGGGTTCTAACCTGTTGCAT (site TAATGACCTAT)	1.67
TAATGGTCTTGGGTTCTAACCTGTTGCAT (site TAATGGTCTAT)	1.61
TAATGGTCTTGGGTTCTAACCTGTTGCAT (site TAATGTTCTAT)	0.065
